# Where a name gives a salt, the structure may show the parent alone. Read-outs that look alike come from different tables or passages of the source.
# Columns and labels:
# [1] = target: T1, EGFR L858R T790M in NCI-H1975 cell line (Homo sapiens, UniProt P00533, L858R/T790M); experiment: NCI-H1975 pEGFR AlphaLISA assay; format: cell-based; conditions: NCI-H1975 cells (EGFR L858R T790M), p-EGFR (Tyr1068), 4-5 hours incubation; read-out: Ext pEGFR H1975 GMean IC50 (nM) Protocol: @Pharmaron AlphaLISA (Num)
# T1 construct: host or cells: NCI-H1975
# Protocol: The NCI-H1975 cells were seeded at 12.5K/well in 22 μL into 384 well opti plate (PerkinElmer, 6007299) and adhering overnight at 37C/5% CO2. On the next day, the test compounds and DMSO control were added into H1975 cell plate followed by incubation at 37C/5% CO2 for 4-5 hours. […] Then 5 μL of a donor bead mix was added to each well followed by overnight incubation at room temperature in dark. On the next day, the plate was read at a compatible plate reader to obtain pEGFR signal. Percent of pEGFR inhibition was plotted against log concentration of compounds to generate IC50 values.
# EGFR (L858R T790M C797S) = target: T2, EGFR (L858R T790M C797S) (Homo sapiens, UniProt P00533, C797S/L858R/T790M); experiment: Biochemical EGFR inhibition assay (Caliper mobility shift), EGFR LRTMCS mutant
# T2 construct: purchased SignalChem E10-122VG
# Protocol: Reactions proceeded until between 10% to 20% total peptides were phosphorylated at room temperature (25° C.) and were terminated with 35 mM 2,2′,2″,2′″-(ethane-1,2-diyldinitrilo)tetraacetic acid (EDTA). Product was detected using the Caliper mobility shift detection method where the phosphorylated peptide (product) and substrate were electrophoretically separated and measured. Percent activity was plotted against log concentration of compound and points to generate an apparent IC50.
# [2] = LRTMCS (PH) IC50 (nM) @ 1 mM ATP (Num)
# T2 sequence (P00533 25-1210 T790M/C797S/L858R): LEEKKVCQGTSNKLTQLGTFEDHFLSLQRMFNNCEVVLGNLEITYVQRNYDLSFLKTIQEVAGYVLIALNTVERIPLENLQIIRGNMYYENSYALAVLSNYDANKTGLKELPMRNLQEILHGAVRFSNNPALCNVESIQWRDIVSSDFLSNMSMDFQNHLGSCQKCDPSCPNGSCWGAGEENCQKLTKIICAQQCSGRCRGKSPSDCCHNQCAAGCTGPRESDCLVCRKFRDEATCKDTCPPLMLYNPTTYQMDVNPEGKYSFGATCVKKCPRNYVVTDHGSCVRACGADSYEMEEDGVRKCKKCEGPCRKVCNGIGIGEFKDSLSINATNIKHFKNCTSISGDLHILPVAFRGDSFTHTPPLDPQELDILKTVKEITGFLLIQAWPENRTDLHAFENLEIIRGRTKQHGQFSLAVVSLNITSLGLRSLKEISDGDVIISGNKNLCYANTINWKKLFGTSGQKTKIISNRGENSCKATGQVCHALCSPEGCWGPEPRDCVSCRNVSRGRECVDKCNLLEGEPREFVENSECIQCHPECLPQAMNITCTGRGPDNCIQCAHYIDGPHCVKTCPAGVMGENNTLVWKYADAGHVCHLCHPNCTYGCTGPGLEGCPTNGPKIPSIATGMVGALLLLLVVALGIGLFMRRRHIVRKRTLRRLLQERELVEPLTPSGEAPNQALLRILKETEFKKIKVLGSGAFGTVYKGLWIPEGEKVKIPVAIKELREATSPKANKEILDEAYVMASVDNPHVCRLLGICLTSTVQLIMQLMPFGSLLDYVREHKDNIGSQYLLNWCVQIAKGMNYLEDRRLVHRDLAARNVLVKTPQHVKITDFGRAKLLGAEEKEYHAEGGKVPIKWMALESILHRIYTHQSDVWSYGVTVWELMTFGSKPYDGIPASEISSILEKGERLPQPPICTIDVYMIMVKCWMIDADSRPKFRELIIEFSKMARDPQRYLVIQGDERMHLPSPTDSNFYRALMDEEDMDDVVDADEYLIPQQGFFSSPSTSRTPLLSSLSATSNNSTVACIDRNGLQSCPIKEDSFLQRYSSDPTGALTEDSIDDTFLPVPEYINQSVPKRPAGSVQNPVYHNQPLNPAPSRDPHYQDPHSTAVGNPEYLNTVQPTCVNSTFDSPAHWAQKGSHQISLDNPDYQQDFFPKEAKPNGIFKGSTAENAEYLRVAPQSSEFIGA
# T1 sequence (P00533 25-1210 T790M/L858R): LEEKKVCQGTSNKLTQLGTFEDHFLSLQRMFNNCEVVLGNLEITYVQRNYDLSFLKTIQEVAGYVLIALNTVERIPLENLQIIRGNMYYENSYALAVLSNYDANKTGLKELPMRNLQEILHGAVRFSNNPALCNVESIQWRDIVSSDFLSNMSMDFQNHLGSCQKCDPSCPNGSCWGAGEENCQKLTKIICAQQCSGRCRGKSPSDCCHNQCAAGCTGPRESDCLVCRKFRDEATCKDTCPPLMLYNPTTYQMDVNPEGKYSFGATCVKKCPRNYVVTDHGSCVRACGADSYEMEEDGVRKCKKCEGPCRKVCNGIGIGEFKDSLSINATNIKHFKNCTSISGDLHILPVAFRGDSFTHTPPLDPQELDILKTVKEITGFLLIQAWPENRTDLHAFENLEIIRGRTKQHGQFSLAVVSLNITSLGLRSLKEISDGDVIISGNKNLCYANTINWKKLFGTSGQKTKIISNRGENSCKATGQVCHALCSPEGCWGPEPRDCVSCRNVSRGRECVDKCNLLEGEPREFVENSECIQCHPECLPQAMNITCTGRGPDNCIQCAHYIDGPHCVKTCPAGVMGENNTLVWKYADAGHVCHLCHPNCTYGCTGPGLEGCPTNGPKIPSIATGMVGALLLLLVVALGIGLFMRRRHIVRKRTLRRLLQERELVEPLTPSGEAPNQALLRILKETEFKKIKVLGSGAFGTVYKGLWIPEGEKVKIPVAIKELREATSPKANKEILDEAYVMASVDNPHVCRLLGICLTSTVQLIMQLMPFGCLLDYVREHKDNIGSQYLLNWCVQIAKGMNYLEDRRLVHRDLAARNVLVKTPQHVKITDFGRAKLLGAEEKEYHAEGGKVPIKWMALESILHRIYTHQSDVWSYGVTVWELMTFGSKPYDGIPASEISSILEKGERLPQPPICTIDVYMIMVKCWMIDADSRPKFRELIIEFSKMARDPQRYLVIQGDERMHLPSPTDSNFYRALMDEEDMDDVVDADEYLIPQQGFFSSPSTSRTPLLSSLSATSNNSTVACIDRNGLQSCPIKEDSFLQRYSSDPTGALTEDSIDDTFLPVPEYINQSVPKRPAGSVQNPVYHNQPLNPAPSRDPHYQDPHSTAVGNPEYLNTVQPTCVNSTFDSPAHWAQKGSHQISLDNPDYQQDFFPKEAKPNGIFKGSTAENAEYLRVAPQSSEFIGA
IC50 [1],IC50 (EGFR (L858R T790M C797S); [2]),IC50 (EGFR (L858R T790M C797S); read-out: LRTMCS (PH) IC50 (nM) @ 1 mM ATP (Num)),Structure (SMILES)
> 50 nM,15 to 20 nM,–,"CNC(=O)c1ncc(C(C)C)c2cc(Nc3ccnc(N4C[C@@H](F)[C@@H](O)C(C)(C)C4)n3)ncc12 (single isomer, unassigned) [Example 82, 6-((2-((4S,5R)-5-fluoro-4-hydroxy-3,3-dimethylpiperidin-1l-yl)pyrimidin-4-yl)amino)-4-isopropyl-N-methyl-2,7-naphthyridine-1-carboxamide or 6-((2-((4R,5S)-5-fluoro-4-hydroxy-3,3-dimethylpiperidin-1-yl)pyrimidin-4-yl)amino)-4-isopropyl-N-methyl-2,7-naphthyridine-1-carboxamide]"
> 50 nM,< 15 nM,–,"CO[C@@H]1CCN(c2nccc(Nc3cc4c(C(C)C)ccc(OCCn5cnnc5)c4cn3)n2)C[C@@H]1F [Example 40, 8-(2-(4H-1,2,4-triazol-4-yl)ethoxy)-N-(2-((3S,4R)-3-fluoro-4-methoxypiperidin-1-yl)pyrimidin-4-yl)-5-isopropylisoquinolin-3-amine]"
> 50 nM,15 to 20 nM,–,"[2H]C([2H])([2H])O[C@@H]1CCN(c2nccc(Nc3cc4c(C(C)C)ccc(OC[C@H]5CCC(=O)N5C)c4cn3)n2)C[C@@H]1F [Example 47, (R)-5-(((3-((2-((3S,4R)-3-fluoro-4-(methoxy-d3)piperidin-1-yl)pyrimidin-4-yl)amino)-5-isopropylisoquinolin-8-yl)oxy)methyl)-1-methylpyrrolidin-2-one]"
20 to 30 nM,< 15 nM,–,"CC(=O)N1CC(CNc2ccc(C(C)C)c3cc(Nc4ccnc(N5CC[C@@H](O)[C@@](C)(F)C5)n4)ncc23)C1 [Example 5, 1-(3-(((3-((2-((3S,4R)-3-fluoro-4-hydroxy-3-methylpiperidin-1-yl)pyrimidin-4-yl)amino)-5-isopropylisoquinolin-8-yl)amino)methyl)azetidin-1-yl)ethan-1-one]"
> 50 nM,20 to 30 nM,–,"CC(C)c1ccc(OC[C@H]2CN(C)C(=O)O2)c2cnc(Nc3ccnc(N4CCC(C)(O)CC4)n3)cc12 [Example 16, (R)-5-(((3-((2-(4-hydroxy-4-methylpiperidin-1-yl)pyrimidin-4-yl)amino)-5-isopropylisoquinolin-8-yl)oxy)methyl)-3-methyloxazolidin-2-one]"
> 50 nM,15 to 20 nM,–,"CNC(=O)c1ncc(C(C)C)c2cc(Nc3ccnc(N4CC[C@@H](O)[C@@](C)(F)C4)n3)ncc12 [Example 64, 6-((2-((3S,4R)-3-fluoro-4-hydroxy-3-methylpiperidin-1-yl)pyrimidin-4-yl)amino)-4-isopropyl-N-methyl-2,7-naphthyridine-1-carboxamide]"
> 50 nM,15 to 20 nM,–,"CC(=O)N1CC(COc2ccc(C(C)C)c3cc(Nc4ccnc(N5CC[C@](C)(O)[C@H](F)C5)n4)ncc23)C1 [Example 26, 1-(3-(((3-((2-((3R,4S)-3-fluoro-4-hydroxy-4-methylpiperidin-1-yl)pyrimidin-4-yl)amino)-5-isopropylisoquinolin-8-yl)oxy)methyl)azetidin-1-yl)ethan-1-one]"
< 10 nM,–,< 15 nM,"CC(C)c1ccc(OC[C@@H]2CC(=O)N(C)C2)c2cnc(Nc3ccnc(N4CC[C@@H](O)[C@@](C)(F)C4)n3)cc12 (single isomer, unassigned) [Example 21]"
10 to 20 nM,< 15 nM,–,"CC(C)c1cnc(C(=O)N[C@H]2CN(C)C[C@H]2F)c2cnc(Nc3ccnc(N4CC[C@@H](O)[C@@](C)(F)C4)n3)cc12 (single isomer, unassigned) [Example 87]"
> 50 nM,20 to 30 nM,–,"CC(C)c1cnc(C(=O)N[C@H](C)CF)c2cnc(Nc3ccnc(N4CC[C@@H](O)[C@@](C)(F)C4)n3)cc12 [Example 71, 6-((2-((3S,4R)-3-fluoro-4-hydroxy-3-methylpiperidin-1-yl)pyrimidin-4-yl)amino)-N-((R)-1-fluoropropan-2-yl)-4-isopropyl-2,7-naphthyridine-1-carboxamide]"
> 50 nM,15 to 20 nM,–,"CO[C@H]1CCN(c2nccc(Nc3cc4c(C(C)C)ccc(OCC5CN(C(C)=O)C5)c4cn3)n2)C[C@@H]1O (single isomer, unassigned) [Example 57, 1-(3-(((3-((2-((3S,4S)-3-hydroxy-4-methoxypiperidin-1-yl)pyrimidin-4-yl)amino)-5-isopropylisoquinolin-8-yl)oxy)methyl)azetidin-1-yl)ethan-1-one or 1-(3-(((3-((2-((3R,4R)-3-hydroxy-4-methoxypiperidin-1-yl)pyrimidin-4-yl)amino)-5-isopropylisoquinolin-8-yl)oxy)methyl)azetidin-1-yl)ethan-1-one]"
> 50 nM,15 to 20 nM,–,"CCNC(=O)c1ncc(C(C)C)c2cc(Nc3ccnc(N4CC[C@@H](O)[C@@](C)(F)C4)n3)ncc12 [Example 65, N-ethyl-6-((2-((3S,4R)-3-fluoro-4-hydroxy-3-methylpiperidin-1-yl)pyrimidin-4-yl)amino)-4-isopropyl-2,7-naphthyridine-1-carboxamide]"
10 to 20 nM,< 15 nM,–,"CC(C)c1cnc(C(=O)N[C@H]2CNC[C@H]2F)c2cnc(Nc3ccnc(N4CC[C@@H](O)[C@@](C)(F)C4)n3)cc12 (racemic) [Example 85, 6-((2-((3S,4R)-3-fluoro-4-hydroxy-3-methylpiperidin-1-yl)pyrimidin-4-yl)amino)-N-((3S,4R)-4-fluoropyrrolidin-3-yl)-4-isopropyl-2,7-naphthyridine-1-carboxamide trifluoroacetate and 6-((2-((3S,4R)-3-fluoro-4-hydroxy-3-methylpiperidin-1-yl)pyrimidin-4-yl)amino)-N-((3R,4S)-4-fluoropyrrolidin-3-yl)-4-isopropyl-2,7-naphthyridine-1-carboxamide trifluoroacetate]"
30 to 50 nM,< 15 nM,–,"CO[C@@H]1CCN(c2nccc(Nc3cc4c(C(C)C)ccc(NCC5CNC[C@@H]5S(C)(=O)=O)c4cn3)n2)C[C@@H]1F (single isomer, unassigned) [Example 1, N3-(2-((3S,4R)-3-fluoro-4-methoxypiperidin-1-yl)pyrimidin-4-yl)-5-isopropyl-N8-(((4R)-4-(methylsulfonyl)pyrrolidin-3-yl)methyl)isoquinoline-3,8-diamine or N3-(2-((3S,4R)-3-fluoro-4-methoxypiperidin-1-yl)pyrimidin-4-yl)-5-isopropyl-N8-(((4S)-4-(methylsulfonyl)pyrrolidin-3-yl)methyl)isoquinoline-3,8-diamine]"
> 50 nM,< 15 nM,–,"CC(C)c1ccc(OCCn2cnnc2)c2cnc(Nc3ccnc(N4CC[C@](C)(O)[C@H](F)C4)n3)cc12 [Example 27, (3R,4S)-1-(4-((8-(2-(4H-1,2,4-triazol-4-yl)ethoxy)-5-isopropylisoquinolin-3-yl)amino)pyrimidin-2-yl)-3-fluoro-4-methylpiperidin-4-ol]"
20 to 30 nM,< 15 nM,–,"CO[C@H]1CCN(c2nccc(Nc3cc4c(C(C)C)ccc(OCCCNC(C)=O)c4cn3)n2)C[C@@H]1O (single isomer, unassigned) [Example 58, N-(3-((3-((2-((3S,4S)-3-hydroxy-4-methoxypiperidin-1-yl)pyrimidin-4-yl)amino)-5-isopropylisoquinolin-8-yl)oxy)propyl)acetamide or N-(3-((3-((2-((3R,4R)-3-hydroxy-4-methoxypiperidin-1-yl)pyrimidin-4-yl)amino)-5-isopropylisoquinolin-8-yl)oxy)propyl)acetamide]"
> 50 nM,< 15 nM,–,"CC(C)c1ccc(OCc2cnn(C)c2)c2cnc(Nc3ccnc(N4CC[C@@H](O)[C@@](C)(F)C4)n3)cc12 [Example 9, (3S,4R)-3-fluoro-1-(4-((5-isopropyl-8-((1-methyl-1H-pyrazol-4-yl)methoxy)isoquinolin-3-yl)amino)pyrimidin-2-yl)-3-methylpiperidin-4-ol]"
20 to 30 nM,< 15 nM,–,"CC(C)c1cnc(C(=O)N[C@H]2C[C@@H](C#N)C2)c2cnc(Nc3ccnc(N4CC[C@@H](O)[C@@](C)(F)C4)n3)cc12 [Example 81, N-((1r,3r)-3-cyanocyclobutyl)-6-((2-((3S,4R)-3-fluoro-4-hydroxy-3-methylpiperidin-1-yl)pyrimidin-4-yl)amino)-4-isopropyl-2,7-naphthyridine-1-carboxamide]"
> 50 nM,15 to 20 nM,–,"CC(C)c1cnc(C(=O)NC2CC2)c2cnc(Nc3ccnc(N4CC[C@@H](O)[C@@](C)(F)C4)n3)cc12 [Example 68, N-cyclopropyl-6-((2-((3S,4R)-3-fluoro-4-hydroxy-3-methylpiperidin-1-yl)pyrimidin-4-yl)amino)-4-isopropyl-2,7-naphthyridine-1-carboxamide]"
> 50 nM,20 to 30 nM,–,"CC(=O)N1CC(COc2ccc(C(C)C)c3cc(Nc4ccnc(N5CC[C@@](C)(O)[C@@H](F)C5)n4)ncc23)C1 [Example 11, 1-(3-(((3-((2-((3S,4R)-3-fluoro-4-hydroxy-4-methylpiperidin-1-yl)pyrimidin-4-yl)amino)-5-isopropylisoquinolin-8-yl)oxy)methyl)azetidin-1-yl)ethanone]"
> 50 nM,> 100 nM,–,CNc1nnc(C(C)C)c2cc(Nc3ccnc(N4CC[C@@H](O)[C@@H](F)C4)n3)ncc12 [Example 95]
